One test concerns adult DRG neurons. The test is described as follows: Axon growth of DRG neurons on laminin or substrate-bound aggrecan (CSPG). Conditions: 10 μM TubA, 24 h. The format is cell-based, rat. The text has this:
MAG and CSPGs are more often tested as surface-bound substrates than with the bath applications used here. Thus, we tested whether bath application of growth inhibitors would cause growth cone retraction in a manner similar to surface-bound inhibitors. […] RhoA activation is a well-known downstream mediator for the growth-inhibitory effects of both MAG and CSPGs (Fujita and Yamashita, 2014), so we tested whether the RhoA/ROCK pathway contributes to the impact of aggregan on mitochondria distribution in growth cones.
MAG or Aggrecan exposures were performed as bath application or on coated substrates. For bath application, dissociated DRGs were cultured for 48 h and treated with 25 μg/ml of MAG-Fc (R&D Systems; 538-MG), 25 μg/ml Fc control (R&D Systems; 110-HG), or 10 μg/ml of Aggrecan (Sigma-Aldrich; A1960) for 4 h. Cultures were pretreated with either Ca^2+ chelator BAPTA-AM (3 μM; Sigma-Aldrich; A1076), ROCK inhibitor Y27632 (10 μM; Sigma-Aldrich; SCM075), HDAC6 inhibitor TubA (10 μM; R&D Systems; 6270), Thapsigargin (1 μM; Sigma-Aldrich; T9033), Rho Activator II (1 μg/ml; Cytoskeleton; CNO3), or equivalent volume DMSO 30 min before MAG-Fc, Aggrecan, or controls. […]
NF-stained cultures were used for neurite growth analyses. […] The growth cone area was measured using ImageJ software from these annotated DIC images. […]

For test [1], the system named is axonal mitochondria of DRG neurons. As to the kind of experiment: Live cell imaging of axonal mitochondrial movement in cultured DRG neurons. It is filed as cell-based, rat. The text has this: HDAC6 inhibition was previously shown to increase transport of mitochondria in axons of embryonic rodent hippocampal and chick sensory neurons (Chen et al., 2010; Kim et al., 2012; Rui and Zheng, 2016; Sainath et al., 2017), and axonal mitochondrial transport has been linked to axon growth (Steketee et al., 2012; Cartoni et al., 2016; Lewis et al., 2016; Zhou et al., 2016). By live cell imaging with MitoTracker to visualize mitochondria, DRG neurons appeared to show increased anterograde versus retrograde mitochondrial movement along axons (FIG. 3 at A and B). […] (A and B) Representative images from CALI time lapse sequence are shown for DRGs cultured on laminin and treated with vehicle control (DMSO) versus 10 μM TubA for 1 h (A). BFP is shown in blue as an axonal marker and Mito-KR signal is shown in red. Boxed regions represent ROI for distal axon and growth cone that was subjected to photoactivation of Mito-KR to ablate mitochondria. […] (C and D) Quantifications of percentage of axons retracting (C) and retraction distance (D) from image sequences as in A are shown as average±SEM (n≥13 across three culture preparations; ***, P≤0.005 by one-way ANOVA with Bonferroni post hoc analysis). (E) Recovery of Mito-KR red fluorescence in photoactivated ROI from image sequences as in A is shown as average of normalized percentage recovery±SEM (n≥13 axons from three independent experiments; *, P≤0.05; **, P≤0.01; ***, P≤0.005 vs. t=0; ###, P≤0.005; ####, P≤0.001, #####, P≤0.0005 for TubA vs. control; and NS vs. t=0 s by one-way ANOVA with Bonferroni post hoc analysis). […]
Quantification of growth cone mitochondria was performed using high-magnification images from living neurons transfected with either Mito-KR or incubated with MitoTracker. […] Only mitochondria that could be distinguished as a single mitochondrion were counted; if this was not possible, that growth cone was not included in the analysis. […]
Vesicle trafficking was quantified using differential ImageJ Difference Tracker Plug-in (Andrews et al., 2010). […] Movement of ≥0.5 μm toward the axon shaft was counted as retracted. […]

Take `CN1CCc2c(c3ccccc3n2Cc2ccc(C(=O)NO)cc2)C1` [TubA, tubastatin]: the “effect on attenuation of axon growth by substrate-bound aggrecan” value in the test with adult DRG neurons is recorded as “prevented by TubA exposure”. In addition, the “mitochondrial profiles in growth cones” value in test [1] (10 μM TubA, 1 h vs vehicle) is given as “significant increase in mitochondrial profiles in the growth cones”. Besides, in test [1] (HDAC6-inhibited (10 μM TubA) vs control, laminin), the “speed, track durations, directionality of axonal mitochondrial movements” value was “no significant differences”. Moreover, in test [1] (HDAC6-inhibited cultures), the “anterogradely vs retrogradely moving mitochondria in axons” value is “more anterogradely than retrogradely moving mitochondria”.

(Values after US20210330756A1, “Acetylation of Miro1” (University of South Carolina, priority 2020, published 2021).)
